Measurements taken from patent publication US9101613B2, “Methods for treating neurological disease” (Neurim Pharmaceuticals (1991) Ltd., priority 2006, dated 2015).

What was measured:
[1] = tested on: PC12 cells; assay: Glutamate-induced loss of cell viability in PC12 cells (MTT); type: cell-based
Description: For the cell viability assays, 24 h after seeding in 96-well plates, the cultures were pretreated with N-[2-(5-methoxy-indol-3-yl)-ethyl]-comanilamide (100 pm, 1 nM, 10 nM, 100 nM, 1 uM and 10 uM) or melatonin (1 uM) for 0 h before exposure to 4 mM glutamate. After 24 h incubation, cellular viability was evaluated by MTT assay.
PC12 cell viability was determined by the conventional 3-(4,5-dimethylthiazol-2-yl)-2,5-diphenyltetrazolium bromide (MTT) assay. PC12 cells were treated with MTT solution (0.5 mg/ml) and were then incubated at 37° C. for 4 hrs. The medium was removed and 150 μl DMSO/well was added to dissolve formazan. The absorbance at 570 nm was recorded using an enzyme-linked immunosorbent assay reader and the percentage of cell growth inhibition was calculated as follows: Cell viability (%)=A570 (treatment)/A570 (control)×100.

[2] = tested on: C57BL/6 mice; assay: MPTP mouse model of Parkinson's disease, open field test; type: in vivo
Excerpt: Three-month-old male C57BL/6 mice were housed in groups of 5 animals per cage (50 cm×25 cm×20 cm) in a temperature- and humidity-controlled environment with ad libitum access to food and water. Animals were maintained on a 12 hr light/dark schedule, with lights on at 7 A.M.
Six groups of mice were used: (1) the control mice treated with saline and vehicle (n=10), (2) the N-[2-(5-methoxy-indol-3-yl)-ethyl]-comanilamide control mice treated with saline and N-[2-(5-methoxy-indol-3-yl)-ethyl]-comanilamide at 100 or 200 mg/kg (n=5, respectively), (3) the MPTP mice treated with MPTP and vehicle (n=10) and (4) the N-[2-(5-methoxy-indol-3-yl)-ethyl]-comanilamide-treated MPTP mice treated with MPTP and N-[2-(5-methoxy-indol-3-yl)-ethyl]-comanilamide at 100 or 200 mg/kg (n=10, respectively). Mice received daily (i.p.) injections of saline or MPTP (30 mg/kg/day) dissolved in physiological saline for five consecutive days to induce Parkinsonism. […]
For the open field test, the mice were taken from their home cages and transported to the locomotor test chambers (40×40×50 cm) for 5 min and their behaviors were recorded as digital videos. The digital videos then were analyzed off-line. The distance of each mouse traveling in the locomotor test chamber was analyzed by the commercial software.

[3] = tested on: rat primary cortical neurons; assay: Neurite outgrowth in rat primary cortical neurons; type: cell-based
Description: The aim of this study was to assess the potential effect of N-[2-(5-methoxy-indol-3-yl)-ethyl]-comanilamide (100 nM) after 5 days of culture on neurite outgrowth in rat primary cortical neurons. The study used three separate cultures (n=6 wells per condition); the mean value of the 3 cultures (+/−sem) was calculated.
Rat cortical neurons were cultured as described by Singer et al., 1999. Briefly pregnant female rats of 15 days gestation are killed by cervical dislocation (Rats Wistar; Janvier) and the fetuses removed from the uterus. The cortex are removed and placed in ice-cold medium of Leibovitz (L15; Invitrogen) containing 1% of Penicillin-Streptomycin (PS; Invitrogen) and 1% of bovine serum albumin (BSA; Sigma). Cortex are dissociated by trypsinisation for 20 min at 37° C. (Trypsin EDTA 1×; Invitrogen) diluted in PBS without calcium and magnesium. The reaction is stopped by the addition of Dulbecco's modified Eagle's medium (DMEM; Invitrogen) containing DNAase I grade II (0.1 mg/ml; Roche Diagnostic) and 10% of fetal calf serum (FCS; Invitrogen). Cells are then mechanically dissociated by 3 passages through a 10 ml pipette. Cells are then centrifuged at 180×g for 10 min at 10° C. The supernatant is discarded and the cells of pellet are re-suspended in a defined culture medium consisting of Neurobasal (Invitrogen) supplemented with B27 (2%; Invitrogen), L-glutamine (0.2 mM; Invitrogen) and 1% of PS solution with 10 ng/ml of Brain-derived neurotrophic factor (BDNF).
For the neurite outgrowth assay, the cells are seed with test compound A (at 100 nM) and reference compound (BDNF at 10 ng/ml used as reference control) on defined medium (Neurobasal supplemented with 2% of B27, 0.2 mM of L-glutamine and 1% of PS).
The cultures were done (a) without BDNF in order to analyse the neurotrophic effect of compounds alone and (b) with low BDNF concentration (0.5 ng/ml) in order to analyse the synergic neurotrophic effect of N-[2-(5-methoxy-indol-3-yl)-ethyl]-comanilamide with the growth factor.
After 5 days of culture in presence of N-[2-(5-methoxy-indol-3-yl)-ethyl]-comanilamide and reference, cells were fixed by a cool solution of ethanol (95%) and acetic acid (5%) for 10 min. After permeabilization with 0.1% of saponin, cells were incubated with monoclonal antibody anti microtubule associated protein 2 (MAP-2; Sigma). This antibody stains specifically cell bodies and neurite of neurons. […] Nuclei of neurons were labeled by a fluorescent marker (Hoechst solution, SIGMA). Per well, 20 pictures were taken using InCell Analyzer™ 1000 (GE Healthcare) with 20× magnification. All images were done in the same conditions. Analysis of the neuritis networks and neuron were assessed using Developer software (GE Healthcare). […]

COc1ccc2[nH]cc(CCNC(=O)c3cc(=O)cco3)c2c1 [N-[2-(5-methoxy-indol-3-yl)-ethyl]-comanilamide]
effect on cell viability without glutamate ([1]; 10 uM, without glutamate): had no effect on the cell viability
effect on glutamate-induced loss of cell viability ([1]; 100 pm to 10 uM, all doses, 4 mM glutamate, 24 h, MTT): significantly attenuated glutamate-induced loss of cell viability
traveled distance, open field test, vs MPTP mice ([2]; MPTP mice, 100 or 200 mg/kg i.p. once per day, day 14, both p<0.01): showed more level of the traveled distance
traveled distance, open field test, vs control mice ([2]; saline mice, 100 or 200 mg/kg i.p., both p>0.05): no significant difference in the traveled distance
neurotrophic effect, compound alone ([3]; 100 nM alone in the culture medium, without BDNF): no neurotrophic effect
activity at 0.1 µM ([3]; Rattus norvegicus, Primary cortical neuron, 120 h, 100 nM + BDNF 0.5 ng/ml, 5 days of culture, read-out: neurite length, % of control): ~145%
